Test results taken from patent EP4741392A1, “1H-PYRAZOLO[4,3-C]PYRIDINE COMPOUND, AND COMPOSITION THEREOF AND USE THEREOF” (Shenzhen TargetRx Co., Ltd., priority 2023, dated 2025).

Tests used:
Assay type in all cases: biochemical
[1] = biological target: T1, BTK kinase (Homo sapiens, UniProt Q06187); test: Kinase activity inhibition assay (HTRF TK Kit)
T1 construct: purchased Invitrogen PV3587
In short: (§1)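 Read-out: 665/620 nm HTRF ratio after 1 h room-temperature detection with streptavidin-XL665 and TK antibody-cryptate. Kinase reactions (compound, substrate/ATP, enzyme, assembled on ice) ran at room temperature beforehand. Inhibition normalised to blank and positive controls, IC50 by variable-slope sigmoidal fit.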

[2] = biological target: T2, BTK T474I (Homo sapiens, UniProt Q06187, T474I); test: Kinase activity inhibition assay (HTRF TK Kit)
T2 construct: purchased SignalChem B10-12HH
T2 sequence (Q06187 whole entry T474I): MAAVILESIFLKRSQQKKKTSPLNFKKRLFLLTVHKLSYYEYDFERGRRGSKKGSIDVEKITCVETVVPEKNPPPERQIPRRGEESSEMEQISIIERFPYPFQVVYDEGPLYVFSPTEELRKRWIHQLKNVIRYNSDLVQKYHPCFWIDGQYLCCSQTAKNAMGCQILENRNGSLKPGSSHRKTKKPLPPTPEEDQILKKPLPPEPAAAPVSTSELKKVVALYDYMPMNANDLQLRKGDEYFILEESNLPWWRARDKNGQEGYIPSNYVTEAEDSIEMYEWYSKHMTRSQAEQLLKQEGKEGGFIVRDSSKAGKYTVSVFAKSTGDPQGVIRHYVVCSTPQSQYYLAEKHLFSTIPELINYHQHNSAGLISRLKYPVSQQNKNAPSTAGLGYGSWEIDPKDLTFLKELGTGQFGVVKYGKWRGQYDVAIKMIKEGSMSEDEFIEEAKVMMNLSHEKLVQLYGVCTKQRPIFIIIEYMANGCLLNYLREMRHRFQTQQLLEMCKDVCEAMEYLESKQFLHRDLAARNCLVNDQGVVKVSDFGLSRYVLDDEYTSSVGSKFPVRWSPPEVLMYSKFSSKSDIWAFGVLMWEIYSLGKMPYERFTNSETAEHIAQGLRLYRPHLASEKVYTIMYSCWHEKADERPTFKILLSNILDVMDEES
In short: as §1

[3] = biological target: T3, BTK C481S (Homo sapiens, UniProt Q06187, C481S); test: Kinase activity inhibition assay (HTRF TK Kit)
T3 construct: purchased Carna 08-547
T3 sequence (Q06187 whole entry C481S): as the sequence (Q06187 whole entry T474I) above, with I474T, C481S counted along it
In short: as §1

[4] = biological target: T4, EGFR (Homo sapiens, UniProt P00533); test: Kinase activity inhibition assay (HTRF TK Kit), selectivity
T4 construct: purchased Carna 08-115
T4 sequence (P00533 669-1210 limits assumed): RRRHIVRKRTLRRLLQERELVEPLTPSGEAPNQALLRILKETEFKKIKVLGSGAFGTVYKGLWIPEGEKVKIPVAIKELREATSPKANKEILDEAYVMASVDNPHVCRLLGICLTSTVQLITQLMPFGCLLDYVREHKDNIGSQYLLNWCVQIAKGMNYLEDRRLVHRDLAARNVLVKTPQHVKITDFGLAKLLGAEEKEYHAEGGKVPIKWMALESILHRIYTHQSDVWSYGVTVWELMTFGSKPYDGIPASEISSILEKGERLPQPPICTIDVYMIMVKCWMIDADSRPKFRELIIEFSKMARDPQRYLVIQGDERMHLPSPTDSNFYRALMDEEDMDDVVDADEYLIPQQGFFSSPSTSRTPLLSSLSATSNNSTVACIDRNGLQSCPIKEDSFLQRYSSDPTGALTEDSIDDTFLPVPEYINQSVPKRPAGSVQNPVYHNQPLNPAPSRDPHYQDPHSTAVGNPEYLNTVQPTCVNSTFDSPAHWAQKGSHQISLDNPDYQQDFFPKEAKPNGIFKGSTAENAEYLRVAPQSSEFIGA
In short: as §1

[5] = biological target: T5, ITK (Homo sapiens, UniProt Q08881); test: as above
T5 construct: purchased Carna 08-181
T5 sequence (Q08881 1-620): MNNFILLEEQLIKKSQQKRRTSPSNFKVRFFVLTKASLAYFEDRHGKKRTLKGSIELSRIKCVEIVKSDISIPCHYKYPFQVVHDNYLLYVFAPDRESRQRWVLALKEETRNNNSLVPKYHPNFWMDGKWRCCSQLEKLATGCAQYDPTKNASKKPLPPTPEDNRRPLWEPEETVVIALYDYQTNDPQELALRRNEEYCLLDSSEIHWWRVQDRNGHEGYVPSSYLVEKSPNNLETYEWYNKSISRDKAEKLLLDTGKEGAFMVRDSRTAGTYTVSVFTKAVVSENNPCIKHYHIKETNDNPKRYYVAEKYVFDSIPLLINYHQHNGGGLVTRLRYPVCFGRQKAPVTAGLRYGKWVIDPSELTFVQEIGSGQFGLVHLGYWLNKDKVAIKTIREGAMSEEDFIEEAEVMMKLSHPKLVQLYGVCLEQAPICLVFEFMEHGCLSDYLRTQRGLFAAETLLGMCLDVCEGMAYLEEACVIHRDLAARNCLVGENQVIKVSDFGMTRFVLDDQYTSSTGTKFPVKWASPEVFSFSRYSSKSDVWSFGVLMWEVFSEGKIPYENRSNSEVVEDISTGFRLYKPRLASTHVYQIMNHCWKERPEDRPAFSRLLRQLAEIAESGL
In short: as §1

[6] = biological target: T6, TEC (Homo sapiens, UniProt P42680); test: as above
T6 construct: purchased Carna 08-182
T6 sequence (P42680 1-631): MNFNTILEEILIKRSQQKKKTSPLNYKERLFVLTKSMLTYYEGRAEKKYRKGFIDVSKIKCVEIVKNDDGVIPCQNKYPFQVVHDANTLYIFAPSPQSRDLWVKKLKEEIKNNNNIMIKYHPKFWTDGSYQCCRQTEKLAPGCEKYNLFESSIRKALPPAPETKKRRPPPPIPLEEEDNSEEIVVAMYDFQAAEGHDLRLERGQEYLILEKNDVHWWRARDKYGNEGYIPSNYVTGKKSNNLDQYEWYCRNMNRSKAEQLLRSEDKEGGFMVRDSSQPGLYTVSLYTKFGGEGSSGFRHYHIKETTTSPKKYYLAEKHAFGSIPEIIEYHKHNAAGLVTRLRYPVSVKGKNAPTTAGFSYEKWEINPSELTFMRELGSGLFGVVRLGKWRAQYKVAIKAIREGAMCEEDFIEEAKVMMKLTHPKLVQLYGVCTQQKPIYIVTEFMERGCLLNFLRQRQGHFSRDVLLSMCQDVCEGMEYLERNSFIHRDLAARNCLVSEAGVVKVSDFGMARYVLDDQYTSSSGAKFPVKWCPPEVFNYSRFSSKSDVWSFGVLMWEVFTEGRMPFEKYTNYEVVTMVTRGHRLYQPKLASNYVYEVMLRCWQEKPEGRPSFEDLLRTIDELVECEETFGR
In short: as §1

T1 sequence (Q06187 whole entry): as the sequence (Q06187 whole entry T474I) above, with I474T counted along it

SMILES | IC50 [1] | IC50 [2] | IC50 [3] | IC50 [4] | IC50 [5] | IC50 [6]
COc1ccc(F)cc1C(=O)NCc1ccc(-c2ncc(-c3ccc(N4CCN(C)CC4)cn3)c3[nH]nc(N)c23)cc1 [Example 73, N-(4-(3-amino-7-(5-(4-methylpiperazin-1-yl)pyridin-2-yl)-1H-pyrazolo[4,3-c]pyridin-4-yl)benzyl)-5-fluoro-2-methoxybenzamide] | ≤ 1 nM | 5 to 50 nM | ≤ 1 nM | 5 to 50 nM | 50 to 500 nM | 5 to 50 nM
COc1ccc(F)cc1C(=O)NCc1ccc(-c2ncc(-c3ccc(N4CCN(C)C[C@@H]4C)cn3)c3[nH]nc(N)c23)cc1 [Example 74, (S)-N-(-4-(3-amino-7-(5-(2,4-dimethylpiperazin-1-yl)pyridin-2-yl) 1H-pyrazolo[4,3-c]pyridin-4-yl)benzyl)-5-fluoro-2-methoxybenzamide] | 1 to 5 nM | 5 to 50 nM | 1 to 5 nM | 5 to 50 nM | 50 to 500 nM | > 500 nM
COc1ccc(F)cc1C(=O)NCc1ccc(-c2ncc(-c3ccc(N4CCN(C)C[C@H]4C)cn3)c3[nH]nc(N)c23)cc1 [Example 75, (R)-N-(-4-(3-amino-7-(5-(2,4-dimethylpiperazin-1-yl)pyridin-2-yl) 1H-pyrazolo[4,3-c]pyridin-4-yl)benzyl)-5-fluoro-2-methoxybenzamide] | 1 to 5 nM | 5 to 50 nM | ≤ 1 nM | 5 to 50 nM | 5 to 50 nM | 5 to 50 nM
COc1ccc(F)cc1C(=O)NCc1ccc(-c2ncc(-c3ccc(N4CCOCC4)cn3)c3[nH]nc(N)c23)cc1 [Example 76, N-(4-(3-amino-7-(5-morpholinopyridin-2-yl)-1H-pyrazolo[4,3-c]pyridin-4-yl)benzyl)-5-fluoro-2-methoxybenzamide] | ≤ 1 nM | 1 to 5 nM | ≤ 1 nM | 5 to 50 nM | 50 to 500 nM | 1 to 5 nM
COc1ccc(F)cc1C(=O)NCc1ccc(-c2ncc(-c3nccn4cccc34)c3[nH]nc(N)c23)cc1 [Example 77, N-(4-(3-amino-7-(pyrrolo[1,2-a]pyrazin-1-yl)-1H-pyrazolo[4,3-c]pyridin-4-yl)benzyl)-5-fluoro-2-methoxybenzamide] | 1 to 5 nM | 50 to 500 nM | 1 to 5 nM | 50 to 500 nM | > 500 nM | 5 to 50 nM
COc1ccc(F)cc1C(=O)NCc1ccc(-c2ncc(-c3cc4cnccn4n3)c3[nH]nc(N)c23)cc1 [Example 78, N-(4-(3-amino-7-(pyrazolo[1,5-a]pyrazin-2-yl)-1H-pyrazolo[4,3-c]pyridin-4-yl)benzyl)-5-fluoro-2-methoxybenzamide] | ≤ 1 nM | 5 to 50 nM | ≤ 1 nM | 5 to 50 nM | 50 to 500 nM | 5 to 50 nM
COc1ccc(F)cc1C(=O)NCc1ccc(-c2ncc(-c3ccc(NC(=O)C4CC4)cn3)c3[nH]nc(N)c23)cc1 [Example 79, N-(4-(3-amino-7-(5-(cyclopropaneformamido)pyridin-2-yl)-1H-pyrazolo[4,3-c]pyridin-4-yl)benzyl)-5-fluoro-2-methoxybenzamide] | 5 to 50 nM | > 500 nM | 5 to 50 nM | > 500 nM | > 500 nM | > 500 nM
COc1ccc(F)cc1C(=O)NCc1ccc(-c2ncc(-c3cc(NC(=O)C4CC4)ccn3)c3[nH]nc(N)c23)cc1 [Example 80, N-(4-(3-amino-7-(4-(cyclopropaneformamido)pyridin-2-yl)-1H-pyrazolo[4,3-c]pyridin-4-yl)benzyl)-5-fluoro-2-methoxybenzamide] | 1 to 5 nM | 50 to 500 nM | 1 to 5 nM | 50 to 500 nM | > 500 nM | 5 to 50 nM
COc1ccc(F)cc1C(=O)NCc1ccc(-c2ncc(-c3ccc(F)cn3)c3[nH]nc(N)c23)c(F)c1 [Example 82, N-(4-(3-amino-7-(5-fluoropyridin-2-yl)-1H-pyrazolo[4,3-c]pyridin-4-yl)-3-fluorobenzyl)-5-fluoro-2-methoxybenzamide] | 1 to 5 nM | 50 to 500 nM | 1 to 5 nM | > 500 nM | > 500 nM | 50 to 500 nM
COc1ccc(F)cc1C(=O)NCc1ccc(-c2nc(C)c(-c3ncccn3)c3[nH]nc(N)c23)cc1 [Example 84, N-(4-(3-amino-6-methyl-7-(pyrimidin-2-yl)-1H-pyrazolo[4,3-c]pyridin-4-yl)benzyl)-5-fluoro-2-methoxybenzamide] | 5 to 50 nM | 50 to 500 nM | 5 to 50 nM | > 500 nM | > 500 nM | > 500 nM
COc1ccc(F)cc1C(=O)NCc1ccc(-c2nc(C(F)F)c(-c3ncccn3)c3[nH]nc(N)c23)cc1 [Example 85, N-(4-(3-amino-6-(difluoromethyl)-7-(pyrimidin-2-yl)-1H-pyrazolo[4,3-c]pyridin-4-yl)benzyl)-5-fluoro-2-methoxybenzamide] | 1 to 5 nM | 50 to 500 nM | 1 to 5 nM | > 500 nM | > 500 nM | 50 to 500 nM
COc1ccc(F)cc1C(=O)NCc1ccc(-c2nc(C3CCSCC3)cc3[nH]nc(N)c23)cc1 [Example 91, N-(4-(3-amino-6-(tetrahydro-2H-thiopyran-4-yl)-1H-pyrazolo[4,3-c]pyridin-4-yl)benzyl)-5-fluoro-2-methoxybenzamide] | 1 to 5 nM | 50 to 500 nM | 1 to 5 nM | 50 to 500 nM | > 500 nM | 50 to 500 nM
C=CC(=O)N1CCCC(c2cc3[nH]nc(N)c3c(-c3ccc(CNC(=O)c4cc(F)ccc4OC)cc3)n2)C1 (stereo not drawn) [Example 96, N-(4-(6-(1-acryloylpiperidin-3-yl)-3-amino-1H-pyrazolo[4,3-c]pyridin-4-yl)benzyl)-5-fluoro-2-methoxybenzamide] | 1 to 5 nM | 5 to 50 nM | 1 to 5 nM | 50 to 500 nM | > 500 nM | 5 to 50 nM
COc1ccc(F)cc1C(=O)NCc1ccc(-c2ncc(-c3nccn4nccc34)c3[nH]nc(N)c23)cc1 [Example 98, N-(4-(3-amino-7-(pyrazolo[1,5-a]pyrazin-4-yl)-1H-pyrazolo[4,3-c]pyridin-4-yl)benzyl)-5-fluoro-2-methoxybenzamide] | 1 to 5 nM | 50 to 500 nM | 1 to 5 nM | 50 to 500 nM | > 500 nM | 5 to 50 nM
COc1ccc(F)cc1C(=O)NCc1ccc(-c2ncc(-c3nc4ccccc4s3)c3[nH]nc(N)c23)cc1 [Example 99, N-(4-(3-amino-7-(benzo[d]thiazol-2-yl)-1H-pyrazolo[4,3-c]pyridin-4-yl)benzyl)-5-fluoro-2-methoxybenzamide] | 5 to 50 nM | 50 to 500 nM | 5 to 50 nM | 50 to 500 nM | > 500 nM | 5 to 50 nM
COc1ccc(F)cc1C(=O)NCc1ccc(-c2ncc(-c3nc4cccnc4s3)c3[nH]nc(N)c23)cc1 [Example 100, N-(4-(3-amino-7-(thiazolo[5,4-b]pyridin-2-yl)-1H-pyrazolo[4,3-c]pyridin-4-yl)benzyl)-5-fluoro-2-methoxybenzamide] | 1 to 5 nM | 50 to 500 nM | 1 to 5 nM | 50 to 500 nM | > 500 nM | 5 to 50 nM
CCN1CCc2nc(-c3cnc(-c4ccc(CNC(=O)c5cc(F)ccc5OC)cc4)c4c(N)n[nH]c34)sc2C1 [Example 101, N-(4-(3-amino-7-(5-ethyl-4,5,6,7-tetrahydrothiazolo[5,4-c]pyridin-2-yl)-1H-pyrazolo[4,3-c]pyridin-4-yl)benzyl)-5-fluoro-2-methoxybenzamide] | 1 to 5 nM | 5 to 50 nM | 1 to 5 nM | 50 to 500 nM | 50 to 500 nM | 5 to 50 nM
